{"source": "paper PMC5879690", "about": "(Proceedings of the National Academy of Sciences of the …, 2018)", "target": "indoleamine 2,3-dioxygenase (IDO1) (Homo sapiens, UniProt P14902)", "sequence (P14902 whole entry)": "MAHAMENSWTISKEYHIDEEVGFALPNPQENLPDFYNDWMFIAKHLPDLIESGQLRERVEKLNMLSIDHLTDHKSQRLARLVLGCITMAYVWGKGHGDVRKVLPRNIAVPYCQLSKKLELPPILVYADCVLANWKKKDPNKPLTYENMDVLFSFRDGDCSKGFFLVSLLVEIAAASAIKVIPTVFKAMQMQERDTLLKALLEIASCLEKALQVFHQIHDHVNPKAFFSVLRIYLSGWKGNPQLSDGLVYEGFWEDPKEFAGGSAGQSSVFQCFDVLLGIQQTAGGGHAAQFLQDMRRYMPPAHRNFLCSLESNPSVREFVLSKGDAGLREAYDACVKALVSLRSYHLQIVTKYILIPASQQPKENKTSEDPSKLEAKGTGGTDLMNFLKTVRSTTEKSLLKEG", "test": "enzyme activity assay, N-formylkynurenine production", "type": "biochemical", "data": [{"smiles": "N[C@H](Cc1c[nH]c2ccccc12)C(=O)O", "note": "[D-tryptophan]", "values": [{"measurement": "enzyme activity assay, N-formylkynurenine production", "value": "D-tryptophan was used as the substrate, which unlike L-tryptophan, does not cause substrate inhibition"}]}]}
